Data published in patent US9145411B2, “Substituted amino-pyrimidine derivatives” (Asana Biosciences, LLC, priority 2012, dated 2015).

Assays:
[1] = system: PC3 cells; experiment: XTT assay for cell viability, PC3 cells; format: cell-based; settings: Homo sapiens, PC-3; PC3 cell proliferation, 96 hours
Summary of the method: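 Log-phase PC3 cells (1000/well) were seeded for 24 h, then exposed to serially diluted compounds (DMSO dilutions) for 96 h. Viability was measured by XTT dye conversion at 37 °C, with absorbance read at 465 nm. EC50 was obtained from a sigmoidal dose-response fit.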

[2] = target: T1, mTOR kinase (Homo sapiens, UniProt P42345); experiment: mTOR kinase TR-FRET assay; format: biochemical; settings: 20 μM ATP
T1 construct: purchased Millipore, USA
T1 sequence (P42345 1362-2549 limits assumed): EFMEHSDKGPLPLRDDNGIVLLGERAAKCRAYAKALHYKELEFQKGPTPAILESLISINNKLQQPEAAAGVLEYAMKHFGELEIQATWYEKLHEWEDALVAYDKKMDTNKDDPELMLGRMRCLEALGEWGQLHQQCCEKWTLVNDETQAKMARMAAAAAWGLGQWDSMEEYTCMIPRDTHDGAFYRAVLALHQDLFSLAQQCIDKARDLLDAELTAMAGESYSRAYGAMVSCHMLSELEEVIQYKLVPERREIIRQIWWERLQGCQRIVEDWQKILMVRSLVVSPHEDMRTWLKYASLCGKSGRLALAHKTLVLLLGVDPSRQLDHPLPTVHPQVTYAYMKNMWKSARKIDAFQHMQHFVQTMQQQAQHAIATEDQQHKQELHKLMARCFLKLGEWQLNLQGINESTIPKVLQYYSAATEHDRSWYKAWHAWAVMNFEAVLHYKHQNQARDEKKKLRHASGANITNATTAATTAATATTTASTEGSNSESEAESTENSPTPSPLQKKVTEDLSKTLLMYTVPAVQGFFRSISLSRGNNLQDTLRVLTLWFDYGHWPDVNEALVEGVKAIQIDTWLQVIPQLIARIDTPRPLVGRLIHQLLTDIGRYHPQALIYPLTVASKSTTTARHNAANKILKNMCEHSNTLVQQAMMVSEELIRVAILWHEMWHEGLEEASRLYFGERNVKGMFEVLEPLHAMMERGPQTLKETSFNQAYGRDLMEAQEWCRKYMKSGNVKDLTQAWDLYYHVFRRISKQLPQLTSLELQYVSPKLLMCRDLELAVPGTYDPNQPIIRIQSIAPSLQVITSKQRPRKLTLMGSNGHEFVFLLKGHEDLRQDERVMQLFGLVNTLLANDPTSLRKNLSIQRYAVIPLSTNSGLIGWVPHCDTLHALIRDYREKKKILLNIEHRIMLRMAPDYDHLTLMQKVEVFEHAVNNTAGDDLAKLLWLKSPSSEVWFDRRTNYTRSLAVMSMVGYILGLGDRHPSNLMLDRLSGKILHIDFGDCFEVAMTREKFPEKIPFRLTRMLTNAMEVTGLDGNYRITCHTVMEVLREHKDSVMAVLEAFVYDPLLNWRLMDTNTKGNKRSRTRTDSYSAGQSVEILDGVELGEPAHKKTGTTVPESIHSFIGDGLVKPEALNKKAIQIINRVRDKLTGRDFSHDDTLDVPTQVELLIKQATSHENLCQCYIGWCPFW
Summary of the method: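 Test compounds were pre-incubated 60 min with mTOR (5 ng), then ULight-p70 S6K (Thr389) peptide (50 nM) and ATP (20 μM) were added in HEPES 50 mM pH 7.5, EGTA, MnCl2 3 mM. After 60 min at room temperature, EDTA stop and Eu-anti-phospho antibody TR-FRET (665/615 nm) gave IC50 from sigmoidal variable-slope fits.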

[3] = system: pAkt(T308); experiment: In-cell Western assay, pAkt(T308), PC3 cells; format: cell-based; settings: Homo sapiens, PC-3, 2 hours incubation
Description: (§1) Cells from human prostate cancer cell line PC3 (American Type Culture Collection (ATCC), Manassas, Va. 20108 USA) were seeded at an optimal density of 22,000 cell/well in 96-well plates containing Ham's F12K medium (90 μL) and incubated overnight. The compound dilutions were carried out in 100% DMSO followed by a dilution in the medium. Test compounds were added in serial dilutions to the wells and incubated for 2 hours. The cells were washed and fixed with 4% paraformaldehyde. After incubation at room temperature for 1 hour in the dark, blocking was done for 2 hours at room temperature. Primary antibodies for pAkt(S473) ([…] phosphorylated at serine 473), pAkt(T308) (Akt phosphorylated at threonine 308) and for pS6RP (S235/236) (phosphorylated at serine 235/236) (commercially available from Cell Signaling Technology®, whose protocol was followed for the in-cell western assay, were diluted to the required concentration and added to the corresponding wells followed by overnight incubation at 4° C. Eu-labeled rabbit (PE) (Perkin-Elmer USA catalog #AD0106) secondary antibody was added and incubated for 2 hours at room temperature. Delfia® enhancement solution (cat #1244-105, Perkin Elmer USA) was subsequently added to the plate before taking the reading at 615 nm with excitation wavelength of 340 nm, after which 0.5 μg/mL of Hoechst® 33258 dye (Catalog #86140-5, Sigma) was added to the plate and fluorescence emission was read at 460 nm with 355 nm excitation, to evaluate the correction factor. IC50 values were calculated using a sigmoidal dose-response curve fit in GraphPad Prism® v5 software.

[4] = target: T2, PI3Kα (wild-type) (Homo sapiens, UniProt P42336); experiment: PI3 Kinase TR-FRET assay, PI3Kα (wild-type); format: biochemical; settings: wild-type P110/P85α, 10 μM ATP
T2 construct: made in house; host or cells: SF9 insect cells
T2 sequence (P42336 whole entry, species assumed): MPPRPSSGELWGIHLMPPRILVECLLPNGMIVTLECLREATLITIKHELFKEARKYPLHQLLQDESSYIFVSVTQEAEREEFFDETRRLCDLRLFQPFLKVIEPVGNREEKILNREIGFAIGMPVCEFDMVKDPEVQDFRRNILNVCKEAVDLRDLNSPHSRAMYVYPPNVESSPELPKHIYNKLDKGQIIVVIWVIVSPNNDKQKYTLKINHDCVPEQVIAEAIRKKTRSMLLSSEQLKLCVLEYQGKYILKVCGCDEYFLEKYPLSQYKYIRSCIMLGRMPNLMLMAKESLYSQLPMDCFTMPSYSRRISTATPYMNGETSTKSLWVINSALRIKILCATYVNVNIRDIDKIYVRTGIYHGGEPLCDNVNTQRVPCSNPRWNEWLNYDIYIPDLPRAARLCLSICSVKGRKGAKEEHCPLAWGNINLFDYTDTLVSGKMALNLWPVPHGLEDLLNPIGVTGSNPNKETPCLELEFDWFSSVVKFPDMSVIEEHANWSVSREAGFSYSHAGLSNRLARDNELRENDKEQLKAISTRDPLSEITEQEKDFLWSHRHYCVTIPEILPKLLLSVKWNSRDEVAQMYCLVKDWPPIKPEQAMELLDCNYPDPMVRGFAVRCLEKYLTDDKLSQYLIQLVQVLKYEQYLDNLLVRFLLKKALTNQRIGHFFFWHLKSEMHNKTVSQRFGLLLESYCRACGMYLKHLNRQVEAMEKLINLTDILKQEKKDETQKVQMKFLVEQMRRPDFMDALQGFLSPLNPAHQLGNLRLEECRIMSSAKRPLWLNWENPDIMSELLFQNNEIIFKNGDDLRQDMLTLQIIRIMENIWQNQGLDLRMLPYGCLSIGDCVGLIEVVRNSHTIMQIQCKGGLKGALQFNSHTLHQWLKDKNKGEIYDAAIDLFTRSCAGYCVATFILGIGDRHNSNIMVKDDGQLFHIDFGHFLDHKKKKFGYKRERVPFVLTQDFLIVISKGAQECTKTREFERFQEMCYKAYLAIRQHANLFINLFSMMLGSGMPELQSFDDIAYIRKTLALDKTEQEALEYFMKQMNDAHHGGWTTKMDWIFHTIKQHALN
T2 sequence (P27986 whole entry partner, species assumed): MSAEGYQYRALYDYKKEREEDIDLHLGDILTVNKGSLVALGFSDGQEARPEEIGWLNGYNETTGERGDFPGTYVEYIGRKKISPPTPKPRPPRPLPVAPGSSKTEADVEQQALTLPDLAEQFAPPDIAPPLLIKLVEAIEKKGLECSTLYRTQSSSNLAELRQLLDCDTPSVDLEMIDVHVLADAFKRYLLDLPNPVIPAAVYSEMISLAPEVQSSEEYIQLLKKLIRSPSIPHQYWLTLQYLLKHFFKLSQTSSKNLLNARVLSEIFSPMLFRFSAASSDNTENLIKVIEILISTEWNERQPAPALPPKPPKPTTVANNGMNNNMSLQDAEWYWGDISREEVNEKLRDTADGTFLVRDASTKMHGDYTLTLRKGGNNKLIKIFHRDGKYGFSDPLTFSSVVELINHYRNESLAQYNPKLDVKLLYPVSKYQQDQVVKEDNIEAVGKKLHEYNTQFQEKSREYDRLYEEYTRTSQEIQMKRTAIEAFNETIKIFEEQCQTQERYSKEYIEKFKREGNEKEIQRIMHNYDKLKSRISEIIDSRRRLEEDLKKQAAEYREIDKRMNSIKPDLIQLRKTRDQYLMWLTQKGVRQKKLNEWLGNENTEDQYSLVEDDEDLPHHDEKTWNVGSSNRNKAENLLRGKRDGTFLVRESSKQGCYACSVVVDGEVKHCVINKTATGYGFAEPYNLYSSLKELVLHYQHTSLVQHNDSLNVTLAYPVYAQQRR
Summary of the method: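 Sf9-expressed, Ni-purified p110/p85α (5 ng) with PIP2 was preincubated with compound for 60 min at room temperature in buffer with 40 mM MgCl2 and 5 mM DTT. The reaction ran 30 min at room temperature with 10 μM PIP2 and 10 μM ATP. The TR-FRET 665/615 nm ratio was used to derive IC50 from dose-response curves.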

[5] = system: pS6RP (S235/236); experiment: In-cell Western assay, pS6RP (S235/236), PC3 cells; format: cell-based; settings: Homo sapiens, PC-3, 2 hours incubation
Description: as §1

[6] = system: pAkt(S473); experiment: In-cell Western assay, pAkt(S473), PC3 cells; format: cell-based; settings: Homo sapiens, PC-3, 2 hours incubation
Description: as §1

Row | SMILES | IC50 [1] [nM] | IC50 [2] [nM] | IC50 [3] [nM] | IC50 [4] [nM] | IC50 [5] [nM] | IC50 [6] [nM]
1 | CS(=O)(=O)c1cccc(-c2cc3nc(-c4cnc(N)nc4)nc(N4CCOCC4)c3cc2F)c1 [Example 2, 5-(6-Fluoro-7-(3-(methylsulfonyl)phenyl)-4-morpholinoquinazolin-2-yl)pyrimidin-2-amine] | 501 to 5000 | 50 to 200 | – | < 50 | 501 to 5000 | –
2 | Cn1cc(-c2cnc3c(N4CCOCC4)nc(-c4cnc(N)nc4)nc3c2)cn1 [Example 22, 5-(7-(1-methyl-1H-pyrazol-4-yl)-4-morpholinopyrido[3,2-d]-pyrimidin-2-yl)pyrimidin-2-amine] | < 100 | < 50 | 100 to 500 | < 50 | 100 to 500 | 501 to 5000
3 | Nc1ncc(-c2nc(N3CCOCC3)c3ncc(-c4cncnc4)cc3n2)cn1 [Example 23, 5-(4-morpholino-7-(pyrimidin-5-yl)-pyrido[3,2-d]pyrimidin-2-yl)pyrimidin-2-amine] | > 1000 | 50 to 200 | – | < 50 | 501 to 5000 | 100 to 500
4 | CC(O)C(=O)Nc1cccc(-c2cnc3c(N4CCOCC4)nc(-c4cnc(N)nc4)nc3c2)c1 (centres unmarked) [Example 45, N-(3-(2-(2-amino-pyrimidin-5-yl)-4-morpholinopyrido[3,2-d]pyrimidin-7-yl)phenyl)-2-hydroxypropanamide] | < 100 | < 50 | 501 to 5000 | < 50 | 100 to 500 | –
5 | CN(C)CC(=O)Nc1cccc(-c2cnc3c(N4CCOCC4)nc(-c4cnc(N)nc4)nc3c2)c1 [Example 46, N-(3-(2-(2-amino-pyrimidin-5-yl)-4-morpholinopyrido[3,2-d]pyrimidin-7-yl)phenyl)-2-(dimethylamino)-acetamide] | 100 to 500 | < 50 | – | < 50 | 501 to 5000 | –
6 | Nc1ncc(-c2nc(N3CCOCC3)c3ncc(-c4cccc(NC(=O)c5ccco5)c4)cc3n2)cn1 [Example 67, N-(3-(2-(2-amino-pyrimidin-5-yl)-4-morpholinopyrido[3,2-d]pyrimidin-7-yl)-phenyl)furan-2-carboxamide] | 100 to 500 | < 50 | 100 to 500 | < 50 | – | –
7 | Nc1ncc(-c2nc(N3CCOCC3)c3ncc(-c4cccc(NC(=O)c5cnccc5C(F)(F)F)c4)cc3n2)cn1 [Example 68, N-(3-(2-(2-amino-pyrimidin-5-yl)-4-morpholinopyrido[3,2-d]pyrimidin-7-yl)phenyl)-4-(trifluoromethyl)-nicotinamide] | 100 to 500 | < 50 | < 100 | < 50 | – | –
8 | Nc1ncc(-c2nc(N3CCOCC3)c3ncc(-c4cccc(NC(=O)C5CCC(O)CC5)c4)cc3n2)cn1 (centres unmarked) [Example 70, N-(3-(2-(2-amino-pyrimidin-5-yl)-4-morpholinopyrido[3,2-d]pyrimidin-7-yl)phenyl)-4-hydroxycyclohexane-carboxamide] | 100 to 500 | < 50 | 100 to 500 | < 50 | – | –
9 | Nc1ncc(-c2nc(N3CCOCC3)c3ncc(-c4cccc(NC(=O)C5CCC5)c4)cc3n2)cn1 [Example 76, N-(3-(2-(2-amino-pyrimidin-5-yl)-4-morpholinopyrido[3,2-d]pyrimidin-7-yl)-phenyl)cyclobutane-carboxamide] | 100 to 500 | < 50 | < 100 | < 50 | – | –
10 | Nc1ncc(-c2nc(N3CCOCC3)c3ncc(-c4cccc(NC(=O)CN5CCOCC5)c4)cc3n2)cn1 [Example 84, N-(3-(2-(2-aminopyrimidin-5-yl)-4-morpholinopyrido[3,2-d]pyrimidin-7-yl)phenyl)-2-morpholinoacetamide] | 100 to 500 | < 50 | 100 to 500 | < 50 | – | –
11 | Nc1ncc(-c2nc(N3CCOCC3)c3ncc(-c4cc(NC(=O)C5CC5)ccc4F)cc3n2)cn1 [Example 95, N-(3-(2-(2-amino-pyrimidin-5-yl)-4-morpholinopyrido[3,2-d]-pyrimidin-7-yl)-4-fluorophenyl)cyclopropane-carboxamide] | 100 to 500 | 50 to 200 | – | < 50 | 100 to 500 | < 100
12 | CNC(=O)c1cccc(-c2cnc3c(N4CCOCC4)nc(-c4cnc(N)nc4)nc3c2)c1 [Example 103, 3-(2-(2-aminopyrimidin-5-yl)-4-morpholinopyrido[3,2-d]-pyrimidin-7-yl)-N-methylbenzamide] | < 100 | 50 to 200 | < 100 | < 50 | – | –
13 | CCC(=O)Nc1cccc(-c2cnc3c(N4CCOCC4)nc(-c4cnc(N)nc4)nc3c2)c1 [Example 104, N-(3-(2-(2-amino-pyrimidin-5-yl)-4-morpholinopyrido[3,2-d]-pyrimidin-7-yl)-phenyl)propionamide] | 100 to 500 | < 50 | < 100 | < 50 | – | –

Other lines, results leading:

Row | IC50 [1] [nM] | IC50 [2] [nM] | IC50 [3] [nM] | IC50 [4] [nM] | IC50 [5] [nM] | IC50 [6] [nM] | SMILES
14 | 501 to 5000 | 50 to 200 | 501 to 5000 | 50 to 200 | 100 to 500 | 100 to 500 | CS(=O)(=O)c1cccc(-c2ccc3c(N4CCOCC4)nc(-c4cnc(N)nc4)nc3c2)c1 [Example 1, 5-(7-(3-(Methylsulfonyl)phenyl)-4-morpholinoquinazolin-2-yl)pyrimidin-2-amine]
15 | 100 to 500 | < 50 | – | < 50 | 100 to 500 | – | CS(=O)(=O)c1cccc(-c2cnc3c(N4CCOCC4)nc(-c4cnc(N)nc4)nc3c2)c1 [Example 20, 5-(7-(3-(methyl-sulfonyl)phenyl)-4-morpholinopyrido[3,2-d]-pyrimidin-2-yl)pyrimidin-2-amine]
16 | 100 to 500 | < 50 | < 100 | < 50 | – | – | Nc1ncc(-c2nc(N3CCOCC3)c3ncc(-c4cccc(NS(=O)(=O)C5CC5)c4)cc3n2)cn1 [Example 81, N-(3-(2-(2-amino-pyrimidin-5-yl)-4-morpholinopyrido[3,2-d]pyrimidin-7-yl)-phenyl)cyclopropane-sulfonamide]
17 | 100 to 500 | < 50 | < 100 | < 50 | – | – | Nc1ncc(-c2nc(N3CCOCC3)c3ncc(-c4ccc(NS(=O)(=O)C5CC5)cc4)cc3n2)cn1 [Example 82, N-(4-(2-(2-amino-pyrimidin-5-yl)-4-morpholinopyrido[3,2-d]-pyrimidin-7-yl)phenyl)-cyclopropanesulfonamide]
18 | 100 to 500 | < 50 | 100 to 500 | < 50 | – | – | CN1CCN(CC(=O)Nc2ccc(F)c(-c3cnc4c(N5CCOCC5)nc(-c5cnc(N)nc5)nc4c3)c2)CC1 [Example 85, N-(3-(2-(2-aminopyrimidin-5-yl)-4-morpholinopyrido[3,2-d]pyrimidin-7-yl)-4-fluorophenyl)-2-(4-methylpiperazin-1-yl)-acetamide]
19 | 100 to 500 | < 50 | 501 to 5000 | < 50 | – | – | CC(C)C(=O)Nc1cccc(-c2cnc3c(N4CCOCC4)nc(-c4cnc(N)nc4)nc3c2)c1 [Example 105, N-(3-(2-(2-amino-pyrimidin-5-yl)-4-morpholinopyrido[3,2-d]-pyrimidin-7-yl)-phenyl)isobutyramide]
20 | 100 to 500 | 50 to 200 | 501 to 5000 | < 50 | – | – | CC(C)(O)c1cccc(-c2cnc3c(N4CCOCC4)nc(-c4cnc(N)nc4)nc3c2)c1 [Example 109, 2-(3-(2-(2-amino-pyrimidin-5-yl)-4-morpholinopyrido[3,2-d]pyrimidin-7-yl)-phenyl)propan-2-ol]
21 | 501 to 5000 | < 50 | – | < 50 | 501 to 5000 | 501 to 5000 | CC(C)(C)C(=O)Nc1cccc(-c2cnc3c(N4CCOCC4)nc(-c4cnc(N)nc4)nc3c2)c1 [Example 118, N-(3-(2-(2-amino-pyrimidin-5-yl)-4-morpholinopyrido[3,2-d]pyrimidin-7-yl)-phenyl)pivalamide]
